Assay results as given in patent EP1537869A2, “Radiosensibilizer and preparation thereof” (Christian-Albrechts-Universität zu Kiel, priority 2003, dated 2005).

Experiments:
[1] = test system: Mammakarzinomzell-Linie MDA-MB 231; assay: In vitro toxicity (T/C in %) on breast carcinoma cell line; assay type: cell-based, menschlichen; conditions: MDA-MB 231, qualitative or ranking
From the text: Die Toxizität (T/C in %) weiterer erstmals dargestellter α-Diimin-Komplexe der Nickel-Triade unterschiedlicher Strukturtypen wurde in vitro an der menschlichen Mammakarzinomzell-Linie MDA-MB 231 getestet.

hypoxischen CHO-ZeIlen = assay: Radiosensitisation of hypoxic CHO cells (enhancement ratio ER); assay type: cell-based; conditions: radiosensitising effect
From the text: Nickel-α-Diimin-Komplexe der Strukturtypen (α-Diimin)NiCl2 und [(α-Diimin)2Ni](ClO4)2 mit dem α-Diimin Antipy-PCD zeigen gegenüber isosteren Palladium- und Platin-Komplexen erhöhte radiosensibilisierende Wirkungen in hypoxischen CHO-ZeIlen; ER = 1,41 resp. 1,37. Für den unkoordinierten Antipy-PCD-Liganden, mit dem bekannten bioaktiven Molekülteil Phenazon, konnte nur ein sehr geringer strahlensensibilisierender Effekt (ER = 1,13) nachgewiesen werden. Die neutralen α-Diimin-Metall-Halogenid-Komplexe (a) der Nickel-Triade haben gegenüber analogen ionischen Perchlorat-Komplexen (b) eine deutlich höhere radiosensibilisierende Wirkung. Folgende Reihen entsprechender Komplexe - bezogen auf das Zentralmetall - mit abnehmenden o.g. sensibilisierenden Eigenschaften wurden ermittelt: für • (a) Ni > Pd > Pt • (b) Ni > Pt > Pd
Von den untersuchten neuen Platin-α-Diimin-Komplexen ist die fünffach koordinierte (Antipy-PCD)PtCl2(NH3)-Verbindung wegen ihres relativ hohen strahlensensibilisierenden Effektes (ER = 1,36) - verglichen mit ER-Literaturdaten für Platinkomplexe - bedeutsam. Eine entsprechende Sensibilisierung aerobischer CHO-ZeIlen durch die hier untersuchten Substanzen wurde in keinem Fall beobachtet.

in vitro = conditions: hamster, cho cells

Row | Molecule | Toxizität (T/C in %) [1] | ER (hypoxischen CHO-ZeIlen) | viability at 3 h, 300 µM (in vitro)
1 | COc1cc([N+](=O)[O-])ccc1N=Cc1ccccn1 [2-MeO-4-NO2-Ph-PCD] | merkliche Toxizität |  | 
2 | Cc1c(N=Cc2ccccn2)c(=O)n(-c2ccccc2)n1C [Antipy-PCD, 2-Pyridinal-2,3-dihydro-1,5-dimethyl-3-oxo-2-phenyl-1H-pyrazol-4-ylimin] |  | 1,13 | 36%
3 | Bis(2-pyridinal-2,3-dihydro-1,5-dimethyl-3-oxo-2-phenyl-1H- pyrazol-4-ylimin)-nickel(II)perchlorat [[(α-Diimin)2Ni](ClO4)2] |  | 1,37 | 
4 | Dichloro-2-pyridinal-(2,3-dihydro-1,5-dimethyl-3-oxo-2-phenyl-1H-pyrazol-4-ylimin)ammin-platin(II) [(Antipy-PCD)PtCl2(NH3)] |  | 1,36 | 
